In patent US20040086901A1, “Database for analyzing gene function and method of analyzing gene function by dspa” (priority 2000, published 2004):

Key:
Type in all cases: cell-based, mouse
[1] = test system: NIH3T3 cells overexpressing PDGF-R; experiment: MTT cell viability, PDGF-R overexpressing cells vs parental line; details: PDGF-R high-expressing cells / parental cell line, 3 to 4 days
Procedure: (§1) With regard to the function-known genes, the genes shown in the left column of Table 2 were used. With regard to the drugs, those shown in Table 1 were dissolved in DMSO to an extent of 100-fold of the maximum concentration for the search of the drugs and used. With regard to the cells, incubated NIH3T3 or ras-NIH3T3 cells were used.
(§2) Full-length cDNA of each function-known genes was incorporated into an expression vector (pRc-CMV, etc.) and transfected into NIH3T3 cells by a common method. Transformed cells were isolated using the resistance to G-418 as an index and the expression of the transfected gene in each cell was investigated by Western blotting method to select a highly expressing line.
(§3) Cell viabilities were measured according to the following procedures.
(§4) 1) From the 2nd to the 11th rows of a 96-well plate were filled with DMEM (50 μl). The 12th row was filled with 100 μl of DMEM.
(§5) 2) The 1st row was filled with 98 μl of DMEM.
(§6) 3) Drugs (2 μl each) were added into the 1st row.
(§7) 4) Continuous double-dilution was conducted from the 1st to the 9th rows. Fifty μl were taken out from the 9th row and discarded. The plate was preserved in a CO2 incubator.
(§8) 5) Cells (each high-expressing cells and the parental cell line) were detached from the medium using a trypsin solution, suspended in 10% CS-DMEM and transferred to a test tube and cell numbers (cell/ml) were counted.
(§9) 6) The cells were diluted to a concentration of 1×10^5 cells/ml, and 50 μl of the cell suspension were added to the 1st to the 11th rows of the plate followed by gently stirring.
(§10) 7) The plate was transferred to the CO2 incubator and incubated for 3 to 4 days.
(§11) 8) MTT (5 mg/ml in PBS) (10 μl) was added to the 1st to the 12th rows of the plate and incubated in the CO2 incubator at 37° C. for 4 hours.
(§12) 9) A reaction stop solution (0.04N HCl in isopropanol) (150 μl) was added followed by mixing well and being allowed to stand at room temperature for about 2 hours.
(§13) 10) Coloration of formazan which was a metabolite of the MTT dye was measured using a microplate reader. The measurement wavelength was 574 nm and the reference wavelength was 655 nm. The 10th and the 11th rows of the plate were 100% controls and the 12th row was a 0% control.
(§14) As an index for the sensitivity of highly gene-expressing cells and the parental cell line to various drugs, each of the IC40 values thereof was specified and ratios of the IC40 values were calculated. FIG. 2 and FIG. 3 are the examples where ratios of IC40 values were calculated from a curve showing the dependency on the concentration of the chemical versus the viability. After that, logarithmic values of ratios of IC40 values were calculated from each gene.

[2] = test system: NIH3T3 cells overexpressing CBP8; experiment: MTT cell viability, CBP8 overexpressing cells vs parental line; details: CBP8 high-expressing cells / parental cell line, 3 to 4 days
Procedure: as §1, §2, §3, §4, §5, §6, §7, §8, §9, §10, §11, §12, §13, §14

[3] = test system: NIH3T3 cells overexpressing erbB2; experiment: MTT cell viability, erbB2 overexpressing cells vs parental line; details: erbB2 high-expressing cells / parental cell line, 3 to 4 days
Procedure: as §1, §2, §3, §4, §5, §6, §7, §8, §9, §10, §11, §12, §13, §14

[4] = test system: NIH3T3 cells overexpressing JNK-DN; experiment: MTT cell viability, JNK-DN overexpressing cells vs parental line; details: JNK-DN high-expressing cells / parental cell line, 3 to 4 days
Procedure: as §1, §2, §3, §4, §5, §6, §7, §8, §9, §10, §11, §12, §13, §14

[5] = test system: NIH3T3 cells overexpressing STAT1; experiment: MTT cell viability, STAT1 overexpressing cells vs parental line; details: STAT1 high-expressing cells / parental cell line, 3 to 4 days
Procedure: as §1, §2, §3, §4, §5, §6, §7, §8, §9, §10, §11, §12, §13
(§15) As an index for the sensitivity of highly gene-expressing cells and the parental cell line to various drugs, each of the IC40 values thereof was specified and ratios of the IC40 values were calculated. […] After that, logarithmic values of ratios of IC40 values were calculated from each gene.

[6] = test system: NIH3T3 cells overexpressing caspase-2; experiment: MTT cell viability, caspase-2 overexpressing cells vs parental line; details: caspase-2 high-expressing cells / parental cell line, 3 to 4 days
Procedure: as §1, §2, §3, §4, §5, §6, §7, §8, §9, §10, §11, §12, §13, §14

[7] = test system: NIH3T3 cells overexpressing p33/ING1; experiment: MTT cell viability, p33/ING1 overexpressing cells vs parental line; details: p33/ING1 high-expressing cells / parental cell line, 3 to 4 days
Procedure: as §1, §2, §3, §4, §5, §6, §7, §8, §9, §10, §11, §12, §13, §14

[8] = test system: NIH3T3 cells overexpressing m-calpain; experiment: MTT cell viability, m-calpain overexpressing cells vs parental line; details: m-calpain high-expressing cells / parental cell line, 3 to 4 days
Procedure: as §1, §2, §3, §4, §5, §6, §7, §8, §9, §10, §11, §12, §13, §15

[9] = test system: NIH3T3 cells overexpressing N-ras; experiment: MTT cell viability, N-ras overexpressing cells vs parental line; details: N-ras high-expressing cells / parental cell line, 3 to 4 days
Procedure: as §1, §2, §3, §4, §5, §6, §7, §8, §9, §10, §11, §12, §13, §14

[10] = test system: NIH3T3 cells overexpressing calpastatin; experiment: MTT cell viability, calpastatin overexpressing cells vs parental line; details: calpastatin high-expressing cells / parental cell line, 3 to 4 days
Procedure: as §1, §2, §3, §4, §5, §6, §7, §8, §9, §10, §11, §12, §13, §14

[11] = test system: NIH3T3 cells overexpressing caspase-1; experiment: MTT cell viability, caspase-1 overexpressing cells vs parental line; details: caspase-1 high-expressing cells / parental cell line, 3 to 4 days
Procedure: as §1, §2, §3, §4, §5, §6, §7, §8, §9, §10, §11, §12, §13, §15

[12] = test system: NIH3T3 cells overexpressing CP-antisense; experiment: MTT cell viability, CP-antisense cells vs parental line; details: 3 to 4 days
Procedure: as §1, §2, §3, §4, §5, §6, §7, §8, §9, §10, §11, §12, §13, §14

[13] = test system: NIH3T3 cells overexpressing HNF3b; experiment: MTT cell viability, HNF3b overexpressing cells vs parental line; details: HNF3b high-expressing cells / parental cell line, 3 to 4 days
Procedure: as §1, §2, §3, §4, §5, §6, §7, §8, §9, §10, §11, §12, §13, §15

[14] = test system: NIH3T3 cells overexpressing Ki-ras; experiment: MTT cell viability, Ki-ras overexpressing cells vs parental line; details: Ki-ras high-expressing cells / parental cell line, 3 to 4 days
Procedure: as §1, §2, §3, §4, §5, §6, §7, §8, §9, §10, §11, §12, §13, §14

[15] = test system: NIH3T3 cells overexpressing coup; experiment: MTT cell viability, coup overexpressing cells vs parental line; details: coup high-expressing cells / parental cell line, 3 to 4 days
Procedure: as §1, §2, §3, §4, §5, §6, §7, §8, §9, §10, §11, §12, §13, §14

[16] = test system: NIH3T3 cells overexpressing Gluco-corticoid-R; experiment: MTT cell viability, Gluco-corticoid-R overexpressing cells vs parental line; details: Gluco-corticoid-R high-expressing cells / parental cell line, 3 to 4 days
Procedure: as §1, §2, §3, §4, §5, §6, §7, §8, §9, §10, §11, §12, §13, §15

[17] = test system: NIH3T3 cells overexpressing cAMP-PK-CS; experiment: MTT cell viability, cAMP-PK-CS overexpressing cells vs parental line; details: cAMP-PK-CS high-expressing cells / parental cell line, 3 to 4 days
Procedure: as §1, §2, §3, §4, §5, §6, §7, §8, §9, §10, §11, §12, §13, §15

[18] = test system: NIH3T3 cells overexpressing cystatin alpha; experiment: MTT cell viability, cystatin alpha overexpressing cells vs parental line; details: cystatin alpha high-expressing cells / parental cell line, 3 to 4 days
Procedure: as §1, §2, §3, §4, §5, §6, §7, §8, §9, §10, §11, §12, §13, §14

[19] = test system: NIH3T3 cells overexpressing p53(wt); experiment: MTT cell viability, p53(wt) overexpressing cells vs parental line; details: p53(wt) high-expressing cells / parental cell line, 3 to 4 days
Procedure: as §1, §2, §3, §4, §5, §6, §7, §8, §9, §10, §11, §12, §13, §15

[20] = test system: NIH3T3 cells overexpressing T.Tn; experiment: MTT cell viability, T.Tn overexpressing cells vs parental line; details: T.Tn high-expressing cells / parental cell line, 3 to 4 days
Procedure: as §1, §2, §3, §4, §5, §6, §7, §8, §9, §10, §11, §12, §13, §15

| Compound | logarithmic value of ratio of IC40 values [1] | logarithmic value of ratio of IC40 values [2] | logarithmic value of ratio of IC40 values [3] | logarithmic value of ratio of IC40 values [4] | logarithmic value of ratio of IC40 values [5] | logarithmic value of ratio of IC40 values [6] | logarithmic value of ratio of IC40 values [7] | logarithmic value of ratio of IC40 values [8] | logarithmic value of ratio of IC40 values [9] | logarithmic value of ratio of IC40 values [10] | logarithmic value of ratio of IC40 values [11] | logarithmic value of ratio of IC40 values [12] | logarithmic value of ratio of IC40 values [13] | logarithmic value of ratio of IC40 values [14] | logarithmic value of ratio of IC40 values [15] | logarithmic value of ratio of IC40 values [16] | logarithmic value of ratio of IC40 values [17] | logarithmic value of ratio of IC40 values [18] | logarithmic value of ratio of IC40 values [19] | logarithmic value of ratio of IC40 values [20] |
| --- | --- | --- | --- | --- | --- | --- | --- | --- | --- | --- | --- | --- | --- | --- | --- | --- | --- | --- | --- | --- |
| CC(C)(C)C(=O)Oc1ccc(S(=O)(=O)Nc2ccccc2C(=O)NCC(=O)O)cc1 [compound 5046] | 0.36 | 0.12 | 0.80 | −0.09 | 0.05 | 0.51 | −0.25 | −0.04 | 0.23 | −0.1 | 0.40 | −0.06 | −0.25 | 0.51 | −0.04 |  |  |  |  |  |
| CN(C)CCCn1cc(C2=C(c3c[nH]c4ccccc34)C(=O)NC2=O)c2ccccc21 [GF109203X] | 0.00 | 0.16 | −0.40 | 0.58 | 0.41 | 0.92 | −0.28 | 0.35 |  |  | 0.23 | 0.00 | 0.21 | −0.40 | 0.46 | 0.27 | 0.27 | 0.60 | 0.62 | −0.10 |
| C[C@@H]1O[C@@H](O[C@H]2C[C@@H](O)[C@]3(CO)[C@H]4[C@H](O)C[C@]5(C)[C@@H](C6=CC(=O)OC6)CC[C@]5(O)[C@@H]4CC[C@]3(O)C2)[C@H](O)[C@H](O)[C@H]1O [Ouabain, ouabain] | 0.34 | 0.58 | 0.18 | −0.08 | 0.04 | −0.05 | 0.10 | 0.05 | 0.56 | −0.3 | 1.26 | 0.28 | −0.23 | 0.18 | 0.49 | 0.04 | 0.00 | 1.28 |  | 0.28 |
